Series [1] has as its system iPSC-derived cortical glutamatergic neurons. The series can be described thus: Neurite outgrowth assay in iPSC-derived neurons. The format is cell-based, human. As to conditions: for IC50: Homo sapiens, Neuron, 24 h, read-out: IC50 of neurite outgrowth inhibition.
The subject of series [2] is TGFβ/SMAD signaling (SMAD2/3/4 complex), SBE-bla HEK 293T cells. The series can be described thus: SBE-bla antagonist assay. Conditions: for SBE Antagonist Efficacy: activity %, TGFβ1 only = 0, DMSO = -100. Format: cell-based, human.
Series [3] relates to WNT pathway, TCF/LEF-luc HEK293 cells. Briefly: WNT-luc reporter gene assay. Format: cell-based, human.
In series [4] the test system is RAR pathway, RARE-luc C3RL4 cells. Briefly: RAR-luc reporter gene assay. As to conditions: 6 h. Format: cell-based.
Series [5] concerns SHH pathway, Gli1-luc NIH/3T3 cells. Briefly: SHH-luc reporter gene assay. Format: cell-based.
The test system of series [6] is TGFβ, WNT, RAR and SHH pathways. The series can be described thus: Profile across developmental pathways. Format: cell-based. As to conditions: sodium dimethyldithiocarbamate at 10 μM.
The subject of series [7] is SMAD2/3/4 signaling, SBE-bla HEK 293T cells. Briefly: SBE-bla assay, activation by native TGFR ligands. Format: cell-based, human. As to conditions: Figure 2A.
The mark [8] stands for this setting: Homo sapiens, HEK-293T, read-out: IC50 in SBE-bla assay, primary screening.

Entries after “also recorded” stand apart in the source; their conditions may differ. Structures can show the parent of a compound that is named as a salt. Where two headings read alike, the source gives them in different places.

Consider `Nc1ncn([C@@H]2O[C@H](CO)[C@@H](O)[C@H]2O)c(=O)n1` [5-Azacitidine], for which the “inhibition of neurite outgrowth, in words” value in series [1] (24 h treatment, Figure 5D) is on record as “inhibited neurite outgrowth”. Turning to `CN1C(=O)N(c2ccccc2Br)Cc2cnc(Nc3ccc4c(c3)OCC(CO)O4)nc21` (stereo not drawn) [PharmaGSID_48519], in series [1], the “inhibition of neurite outgrowth, in words” value was “did not inhibit neurite outgrowth; also recorded: didn’t inhibit neurite outgrowth”. Turning to `CCCCN(CCCC)C(=S)[S-].[Na+]` [Sodium dibutylcarbamodithioate], the “SBE Antagonist IC50” value in series [2] (TGFβ1-induced SBE-bla activity, HEK 293T, 5 h, Tables 2 and 3) is given as “Inactive”. Further, in series [2], the “SBE Antagonist Efficacy” value was “Inactive”. Moreover, in series [3] (WNT-3a stimulated, 24 h), the “WNT Antagonist Efficacy” value was “Inactive” and the “WNT Antagonist IC50” value is on record as “Inactive”. Moreover, in series [4] (retinol stimulated), the “RAR Antagonist Efficacy” value is “Inactive” and the “RAR Antagonist IC50” value was “Inactive”. Further, in series [5] (conditioned medium, 24 h), the “SHH Antagonist Efficacy” value is “Inactive” and the “SHH Antagonist IC50” value is given as “Inactive”. Further, the “inhibition of developmental pathways, in words” value in series [6] was “inactive”. On to `CCN(CC)C(=S)S` [Sodium diethyldithiocarbamate], for which the IC50 in series [2] (Homo sapiens, HEK-293T, 5 h, read-out: SBE Antagonist IC50) stood at 11500 nM; in series [3] (Homo sapiens, HEK293, 24 h, read-out: WNT Antagonist IC50) it was 3690 nM; in series [4] (read-out: RAR Antagonist IC50), 15300 nM; in series [5] (Mus musculus, NIH3T3, 24 h, read-out: SHH Antagonist IC50), 8920 nM. Besides, the “SBE Antagonist Efficacy” value in series [2] is listed as −58.53%. Besides, in series [3] (WNT-3a stimulated, 24 h), the “WNT Antagonist Efficacy” value is reported as −74.76%. The “RAR Antagonist Efficacy” value in series [4] (retinol stimulated) is recorded as −113.16%. Moreover, the “SHH Antagonist Efficacy” value in series [5] (conditioned medium, 24 h) is reported as −96.63%. For the compound `CN(C)C(=S)SSC(=S)N(C)C` [Thiram], the IC50 in series [1] turned out to be 100 nM.

With `CC(C)C[C@H](NC(=O)[C@H](Cc1ccccc1)NC(=O)c1cnccn1)B(O)O` [bortezomib], in series [1] (24 h treatment, Figure 5D), the “inhibition of neurite outgrowth, in words” value was “inhibited neurite outgrowth”.

Consider `C=CC(=O)Nc1cc2c(Nc3ccc(F)c(Cl)c3)ncnc2cc1OCCCN1CCOCC1` [canertinib], for which, in series [1] (24 h treatment, Figure 5D), the “inhibition of neurite outgrowth, in words” value is listed as “inhibited neurite outgrowth”. On to `CN(C)C(=S)[S-].CN(C)C(=S)[S-].[Cu+2]` [copper dimethyl dithiocarbamates], for which the 50% inhibitory concentration (IC50) in series [2] (read-out: IC50 in SBE-bla assay, DTC cluster k35.18, Figure 3B) stood at 1620 nM. As to `Cc1nc(Nc2ncc(C(=O)Nc3c(C)cccc3Cl)s2)cc(N2CCN(CCO)CC2)n1` [dasatinib], the 50% inhibitory concentration (IC50) in series [2] (setting [8]) was 260 nM. Moreover, the “inhibition of neurite outgrowth, in words” value in series [1] (24 h treatment, Figure 5D) is listed as “did not inhibit neurite outgrowth; also recorded: didn’t inhibit neurite outgrowth”. For `S=C(SSC(=S)N1CCCCC1)N1CCCCC1` [dicyclopentamethylenethiuram, dicyclopentamethylenethiuram disulfide], the IC50 in series [2] (Homo sapiens, HEK-293T, read-out: IC50 in SBE-bla assay, DTC cluster k35.18) was 580 nM; in series [1] it was 820 nM.

On to `CCN(CC)C(=S)SSC(=S)N(CC)CC` [disulfiram], for which the 50% inhibitory concentration (IC50) in series [1] is 180 nM. For `CN1CC[C@H](c2c(O)cc(O)c3c(=O)cc(-c4ccccc4Cl)oc23)[C@H](O)C1` [flavopiridol hydrochloride, reference compound], in series [2] (setting [8]), the half-inhibitory concentration (IC50) was found to be 20 nM. Further, the “inhibition of neurite outgrowth, in words” value in series [1] (24 h treatment, Figure 5D) is reported as “inhibited neurite outgrowth”. On to `CC(=O)[C@]1(O)Cc2c(O)c3c(c(O)c2[C@@H](O[C@H]2C[C@H](N)[C@H](O)[C@H](C)O2)C1)C(=O)c1ccccc1C3=O` [idarubicin hydrochloride], for which, in series [1] (24 h treatment, Figure 5D), the “inhibition of neurite outgrowth, in words” value is on record as “inhibited neurite outgrowth”. As to `COc1cccc2c1C(=O)c1c(O)c3c(c(O)c1C2=O)C[C@@](O)(C(=O)CO)C[C@@H]3O[C@H]1C[C@H](N2CCO[C@H](OC)C2)[C@H](O)[C@H](C)O1` [nemorubicin], the “inhibition of neurite outgrowth, in words” value in series [1] is on record as “inhibited neurite outgrowth”. Regarding `[F][Sn]([c]1ccccc1)([c]1ccccc1)[c]1ccccc1` [triphenyltin fluoride], the “fold less cytotoxic in SBE-bla HEK 293T cells than in NSCs” value in the series on SBE-bla HEK 293T cells worked out at 10 fold.

`CC[C@]1(O)C[C@@H]2CN(CCc3c([nH]c4ccccc34)[C@@](C(=O)OC)(c3cc4c(cc3OC)N(C)[C@H]3[C@@](O)(C(=O)OC)[C@H](OC(C)=O)[C@]5(CC)C=CCN6CC[C@]43[C@@H]65)C2)C1` [vinblastine sulfate]: the “inhibition of neurite outgrowth, in words” value in series [1] (24 h treatment, Figure 5D) was “inhibited neurite outgrowth”.

On to TGFβ1: native TGFR ligand, human TGFβ1, for which, in series [7], the “EC50 of activation of SBE-bla activity” value is given as 0.11 ng/mL. As for TGFβ2: native TGFR ligand, the “EC50 of activation of SBE-bla activity” value in series [7] stood at 0.11 ng/mL. Same read-out and setting: the same measure for TGFβ3: native TGFR ligand: 0.11 ng/mL.

Regarding dibutyltin, in the series with SBE-bla HEK 293T cells, the “fold less cytotoxic in SBE-bla HEK 293T cells than in NSCs” value turned out to be 10 fold. Same read-out and setting: the same measure for phenylmercuric acetate: 10 fold.
